Data reported in patent publication US20240308976A1, “COMPOUNDS THAT MEDIATE PROTEIN DEGRADATION AND USES THEREOF” (Monte Rosa Therapeutics, Inc., priority 2021, published 2024).

biological target: CRBN-DDB1 (Homo sapiens, UniProt Q96SW2); assay: Compound binding to CRBN by HTRF assay; conditions: CRBN-DDB1 2.5 nM, Cy5-Thalidomide 100 nM, 30 min at ambient temperature; read-out: HTRF Class (Cereblon binding, HTRF IC50)
Description: Example 146: Compound Binding to CRBN by HTRF Assay
Compound activity was monitored in a Homogenous Time-Resolved Fluorescence (HTRF) assay using 1-[5-({2-[2-(2-{[2-(2,6-dioxopiperidin-3-yl)-1,3-dioxo-2,3-dihydro-1H-isoindol-4-yl]oxy}acetamido)ethoxy]ethyl}carbamoyl)pentyl]-3,3-dimethyl-2-[(1E,3E)-5-[(2E)-1,3,3-trimethyl-5-sulfo-2,3-dihydro-1H-indol-2-ylidene]penta-1,3-dien-1-yl]-3H-indol-1-ium-5-sulfonate as a fluorescent probe. Biochemical assays were conducted in Greiner white 384 well HiBase plates (Cat. No 784075-25) in 10 μL total volume. A one pot detection solution of CRBN-DDB1 (2.5 nM), Anti-His Terbium Cryptate Gold (1X, PerkinElmer Cat. #: 61HI2TLB), and Cy5-Thalidomide (100 nM, Tenova Cat.: T52461) was prepared in 20 mM HEPES, 20 mM NaCl, 0.2 mM TCEP, 0.2 mM EDTA, and 0.005% Tween20 was dispensed to each assay plate. Compounds were stored in dry, ambient temperatures at 10 mM. A 10-point, 1:3 dilution series was prepared from 10 mM stock concentrations in Echo-compatible LDV plates. 10 nL of each compound dilution series was dispensed into assays wells using an Echo 650 (Labcyte inc. USA). 10 nL of 10 mM Lenalidomide was transferred into the active-control wells for the assay and 10 nL of DMSO was transferred into the neutral-control wells. The assay was then allowed to incubate for 30 min at ambient temperature after transferring compound. Plate measurements were taken on a Pherastar FSX (BMG Labtech, Germany) using the HTRF Red filter (Ex. 337 nm, em1: 620 nm, em2: 665 nm) (Flashes: 50, Integration time: 60-400 us, Z-height: 10 mm, Ratio-multiplier: 10,000). The HTRF signal was then subsequently normalized to the neutral and active controls. Analysis and IC50 values were derived using KNIME analytics (KNIME Zurich) transformation and fitting within Collaborative Drug Discovery (Collaborative Drug Discovery USA). Ki was derived from the geometric mean of the IC50 values using the Cheng-Prustoff transformation.
(§1) In Table 2, each compound is assigned a class (HTRF class) indicating the ability for Cereblon binding by means of their HTRF IC50 values according to […]: A, B, C or D. According to the code, A represents an IC50 value of ≤100 nM, B represents an IC50 value>100 nM and ≤1000 nM, C represents an IC50 value>1000 nM. IF Class assigns each compound a code indicating the ability for GSPT1 degradation: A, B or C. According to the code, A represents a DC50 value of ≤30 nM, B represents a DC50 value>30 nM and ≤300 nM and C represents a DC50 value of >300 nM.

CRBN-DDB1, sequence (Q96SW2 whole entry): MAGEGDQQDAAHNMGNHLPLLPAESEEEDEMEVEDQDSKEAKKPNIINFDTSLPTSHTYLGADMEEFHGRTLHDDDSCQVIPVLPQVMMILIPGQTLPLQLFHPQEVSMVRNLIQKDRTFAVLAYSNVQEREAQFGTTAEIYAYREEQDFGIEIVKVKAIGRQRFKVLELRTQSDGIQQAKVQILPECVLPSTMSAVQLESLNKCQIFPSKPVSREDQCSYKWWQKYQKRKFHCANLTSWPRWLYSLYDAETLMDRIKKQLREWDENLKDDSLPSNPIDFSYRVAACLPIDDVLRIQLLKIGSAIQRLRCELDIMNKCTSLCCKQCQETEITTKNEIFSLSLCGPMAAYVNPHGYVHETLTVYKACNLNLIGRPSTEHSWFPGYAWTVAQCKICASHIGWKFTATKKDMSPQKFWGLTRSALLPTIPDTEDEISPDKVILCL
CRBN-DDB1, sequence (Q16531 whole entry partner): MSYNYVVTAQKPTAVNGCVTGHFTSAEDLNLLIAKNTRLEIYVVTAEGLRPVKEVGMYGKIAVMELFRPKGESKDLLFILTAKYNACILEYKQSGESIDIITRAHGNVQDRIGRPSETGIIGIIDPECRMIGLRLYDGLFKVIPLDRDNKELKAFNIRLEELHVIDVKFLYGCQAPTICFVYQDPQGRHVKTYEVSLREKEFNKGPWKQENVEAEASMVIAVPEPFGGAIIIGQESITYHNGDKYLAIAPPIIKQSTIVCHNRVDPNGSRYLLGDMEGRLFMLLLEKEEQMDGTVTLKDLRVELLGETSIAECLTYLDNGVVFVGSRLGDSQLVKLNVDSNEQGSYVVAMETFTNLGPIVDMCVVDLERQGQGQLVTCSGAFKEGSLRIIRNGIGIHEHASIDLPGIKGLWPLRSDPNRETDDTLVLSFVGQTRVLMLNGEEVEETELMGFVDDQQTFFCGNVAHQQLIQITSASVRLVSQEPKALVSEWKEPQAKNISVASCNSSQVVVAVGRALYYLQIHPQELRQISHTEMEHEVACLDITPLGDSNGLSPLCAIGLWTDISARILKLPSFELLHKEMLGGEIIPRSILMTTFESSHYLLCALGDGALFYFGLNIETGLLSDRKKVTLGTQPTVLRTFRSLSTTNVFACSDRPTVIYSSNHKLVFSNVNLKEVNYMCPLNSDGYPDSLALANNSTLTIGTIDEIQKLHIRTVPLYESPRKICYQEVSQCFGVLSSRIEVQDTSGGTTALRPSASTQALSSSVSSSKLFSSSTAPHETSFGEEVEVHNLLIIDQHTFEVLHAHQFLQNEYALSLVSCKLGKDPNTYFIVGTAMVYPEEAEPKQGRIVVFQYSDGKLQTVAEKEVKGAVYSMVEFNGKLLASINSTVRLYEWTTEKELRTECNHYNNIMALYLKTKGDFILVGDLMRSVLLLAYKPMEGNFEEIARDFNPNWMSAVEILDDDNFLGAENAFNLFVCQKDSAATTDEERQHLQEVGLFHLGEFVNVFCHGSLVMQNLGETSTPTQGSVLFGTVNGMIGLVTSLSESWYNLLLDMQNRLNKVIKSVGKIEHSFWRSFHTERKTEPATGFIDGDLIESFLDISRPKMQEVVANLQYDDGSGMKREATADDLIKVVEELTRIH

IC50 | SMILES
100 to 1000 nM | C[C@H](NC(=O)OC1CN(c2cc(F)c(C3CCC(=O)NC3=O)c(F)c2)C1)c1ccccc1 (stereo partly drawn) [Compound 130, 1-(4-(2,6-dioxopiperidin-3-yl)-3,5-difluorophenyl)azetidin-3-yl((S)-1-phenylethyl) carbamate]
100 to 1000 nM | Cc1cc(C)cc(NC(=O)NC2CN(c3ccc(C4CCC(=O)NC4=O)cc3)C2)c1 (centres unmarked) [Compound 67, 1-(3,5-dimethylphenyl)-3-(1-(4-(2,6-dioxopiperidin-3-yl)phenyl)azetidin-3-yl)urea]
100 to 1000 nM | O=C1CCC(c2c(F)cc(N3CC(OC(=O)Nc4cc(OC(F)(F)F)ccc4F)C3)cc2F)C(=O)N1 (centres unmarked) [Compound 33, 1-(4-(2,6-dioxopiperidin-3-yl)-3,5-difluorophenyl)azetidin-3-yl (2-fluoro-5-(trifluoromethoxy)phenyl)carbamate]

biological target: T1, GSPT1 (Homo sapiens, UniProt P15170+Q96SW2); assay: Immunofluorescence assay for activity to degrade GSPT1 in CAL-51 cells; assay type: cell-based; conditions: 6 h treatment, read-out: IF Class (GSPT1 degradation, DC50)
T1 construct: CAL-51 cells were purchased from DSMZ (cat. Number ACC302); host or cells: CAL-51
Description: Example 147: Compound Activity by Immunofluorescence Assay
The representative compounds were tested in an immunofluorescence assay for their activity to degrade GSPT1. CAL-51 cells were purchased from DSMZ (cat. Number ACC302), sub-cultured in 90% Dulbecco's MEM (4.5 g/L glucose, Gibco 11965)+10% heat inactivated FBS (BioConcept, 2-01F136I) and incubated at 37° C., 5% CO2. For the assay imaging microtiter plate Cell Carrier 96 Ultra (Perkin Elmer 6055302) were pre-coated with Fibronectin (Sigma F085, 30 μL at 0.2 μg/mL) in PBS (100 μL, Gibco 14190) for 45 min at room temperature, rinsed with PBS and CAL-51 cells (30K cells/well) were plated and let to adhere overnight. Cells were treated with compounds typically using a serial dilution ranging from 30 μM to 0.1 nM for 6 h. Compounds were stored at 10 mM DMSO stocks. Vehicle (DMSO), positive (CC-885, 10 μM) and rescue controls (positive control plus 0.2 μM bortezomib) were also included at this stage. Cells were subsequently rinsed with PBS and fixed in 10% Formalin solution (50 μL, Sigma HT5011)) for 20 mins at room temperature. Following three consecutive PBS washes (100 μL), cells were permeabilized in 0.1% Triton X-100 in PBS (Sigma 93443, 50 μL) for 15 min. at room temperature. Following three further PBS washes, 50 μL blocking buffer (1% BSA, Sigma A4503, in PBS) was added for 45 min for signal-to noise reduction. Primary antibody (human GSPT1, Sigma HPA052488) was diluted in blocking buffer (dil.1/300, 35 μL/well) and incubated with the cells overnight at 4° C. After three PBS washes, Alexa-fluor 488 coupled secondary antibodies (Invitrogen, A32731, dil. 1/1000), Alexa-fluor 647-Phalloidin (Invitrogen, A22287, dil. 1/200) and DAPI (Thermo, #62248, dil. 1/1000) were diluted in blocking buffer and incubated with the samples for 2 h at room temperature. After three final PBS washes, samples were conserved in 100 μL PBS in the dark, until measurement. Image acquisition was performed on the Operetta High-Content Imager (Perkin-Elmer). Fluorescence intensity of […] (GSPT1), Alexa-Fluor 647 (Actin) and DAPI (Nucleus) were measured. For the determination of GSPT1 DC50 values, a custom algorithm implemented in the PerkinElmer image analysis software Harmony-Acapella® was developed. After user-defined setting of adjustment parameters, the analysis was run identically without human intervention for all image fields. DAPI staining of the nuclei was used to determine the location of cells using standard nuclei detection modules. Segmentation artifacts were removed by threshold-based filters for area, roundness and intensity. The outline of the cells was determined analogously from the sum of the normalized, smoothed DAPI and Actin channel, starting from each nucleus. The Alexa-Fluor 488 (GSPT1) signal intensity in each cell was finally measured, in order to obtain a Mean intensity per cell. GSPT1 degradation (DC50) was calculated after normalization to controls and data import in CDD vault Database, using non-linear regression.
as §1

T1 sequence (P15170 whole entry): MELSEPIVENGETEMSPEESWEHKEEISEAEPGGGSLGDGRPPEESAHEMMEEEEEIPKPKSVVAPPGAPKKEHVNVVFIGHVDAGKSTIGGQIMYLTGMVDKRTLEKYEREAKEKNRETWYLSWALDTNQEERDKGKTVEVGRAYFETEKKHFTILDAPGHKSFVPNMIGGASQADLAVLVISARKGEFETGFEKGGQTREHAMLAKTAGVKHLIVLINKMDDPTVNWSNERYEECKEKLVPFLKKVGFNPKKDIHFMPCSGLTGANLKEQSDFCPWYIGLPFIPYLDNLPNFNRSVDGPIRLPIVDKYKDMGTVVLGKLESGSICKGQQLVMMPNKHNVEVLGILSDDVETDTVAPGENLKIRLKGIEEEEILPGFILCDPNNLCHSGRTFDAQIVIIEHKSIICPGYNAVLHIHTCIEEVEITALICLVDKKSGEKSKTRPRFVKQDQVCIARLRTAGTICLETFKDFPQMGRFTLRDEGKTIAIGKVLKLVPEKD
T1 sequence (Q96SW2 whole entry): as the sequence (Q96SW2 whole entry) above
T1 sequence (Q16531 2-1140 partner limits assumed): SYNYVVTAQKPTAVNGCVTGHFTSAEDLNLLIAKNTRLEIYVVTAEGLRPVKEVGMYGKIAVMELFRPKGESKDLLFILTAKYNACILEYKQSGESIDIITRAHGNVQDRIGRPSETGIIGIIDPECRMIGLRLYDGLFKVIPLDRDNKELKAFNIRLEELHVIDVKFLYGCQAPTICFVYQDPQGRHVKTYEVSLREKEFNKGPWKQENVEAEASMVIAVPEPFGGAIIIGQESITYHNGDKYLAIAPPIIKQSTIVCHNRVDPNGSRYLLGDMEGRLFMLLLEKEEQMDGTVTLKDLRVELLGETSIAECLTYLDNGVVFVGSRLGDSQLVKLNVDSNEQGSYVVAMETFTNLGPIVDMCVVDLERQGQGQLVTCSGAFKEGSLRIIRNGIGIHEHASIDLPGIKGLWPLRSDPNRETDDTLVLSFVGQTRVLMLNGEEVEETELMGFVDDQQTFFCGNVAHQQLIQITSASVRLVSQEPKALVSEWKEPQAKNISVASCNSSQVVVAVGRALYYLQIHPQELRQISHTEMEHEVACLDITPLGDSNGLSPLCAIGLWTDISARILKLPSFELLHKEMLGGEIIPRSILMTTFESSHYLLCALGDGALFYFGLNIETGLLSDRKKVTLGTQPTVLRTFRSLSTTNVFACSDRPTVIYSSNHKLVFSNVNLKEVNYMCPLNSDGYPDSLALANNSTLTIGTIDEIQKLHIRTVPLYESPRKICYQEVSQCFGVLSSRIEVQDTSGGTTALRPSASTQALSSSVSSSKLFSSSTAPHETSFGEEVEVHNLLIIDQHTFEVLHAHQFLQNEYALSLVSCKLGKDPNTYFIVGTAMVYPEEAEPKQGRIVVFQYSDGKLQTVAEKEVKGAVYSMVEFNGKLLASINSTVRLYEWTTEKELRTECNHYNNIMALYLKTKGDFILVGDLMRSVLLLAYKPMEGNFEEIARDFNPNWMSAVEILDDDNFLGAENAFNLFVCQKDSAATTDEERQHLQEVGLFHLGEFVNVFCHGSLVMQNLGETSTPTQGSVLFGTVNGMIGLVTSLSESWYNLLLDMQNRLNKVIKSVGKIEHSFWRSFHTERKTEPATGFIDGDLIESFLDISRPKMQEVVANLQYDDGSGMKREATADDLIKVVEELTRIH

SMILES | DC50
Cc1cc(C)cc(NC(=O)NC2CN(c3ccc(C4CCC(=O)NC4=O)cc3)C2)c1 (centres unmarked) [Compound 67, 1-(3,5-dimethylphenyl)-3-(1-(4-(2,6-dioxopiperidin-3-yl)phenyl)azetidin-3-yl)urea] | 30 to 300 nM
O=C1CCC(c2c(F)cc(N3CC(OC(=O)NC4[C@H]5C[C@@H]6C[C@@H](C[C@H]4C6)C5)C3)cc2F)C(=O)N1 (stereo partly drawn) [Compound 107, 1-(4-(2,6-dioxopiperidin-3-yl)-3,5-difluorophenyl)azetidin-3-yl (1R,3S,5R,7R)-adamantan-2-ylcarbamate] | 30 to 300 nM
O=C1CCC(c2c(F)cc(N3CC(OC(=O)Nc4cc(OC(F)(F)F)ccc4F)C3)cc2F)C(=O)N1 (centres unmarked) [Compound 33, 1-(4-(2,6-dioxopiperidin-3-yl)-3,5-difluorophenyl)azetidin-3-yl (2-fluoro-5-(trifluoromethoxy)phenyl)carbamate] | ≤ 30 nM
O=C1CCC(c2c(F)cc(N3CC(OC(=O)NC45CCC(CC4)CC5)C3)cc2F)C(=O)N1 (centres unmarked) [Compound 98, 1-(4-(2,6-dioxopiperidin-3-yl)-3,5-difluorophenyl)azetidin-3-yl bicyclo[2.2.2]octan-1-ylcarbamate] | ≤ 30 nM
O=C1CCC(c2c(F)cc(N3CC(NC(=O)N[C@@H]4CCC(F)(F)C4)C3)cc2F)C(=O)N1 (stereo partly drawn) [Compound 111, 1-((R)-3,3-difluorocyclopentyl)-3-(1-(4-(2,6-dioxopiperidin-3-yl)-3,5-difluorophenyl)azetidin-3-yl)urea] | > 300 nM
O=C1CCC(c2c(F)cc(N3CC(OC(=O)NCC45C[C@H]6C[C@@H](C4)C[C@@H](C5)C6)C3)cc2F)C(=O)N1 (stereo partly drawn) [Compound 106, 1-(4-(2,6-dioxopiperidin-3-yl)-3,5-difluorophenyl)azetidin-3-yl((3R,5R,7R)-adamantan-1-ylmethyl) carbamate] | ≤ 30 nM
O=C1CCC(c2c(F)cc(N3CC(OC(=O)NCCC(F)(F)F)C3)cc2F)C(=O)N1 (centres unmarked) [Compound 109, 1-(4-(2,6-dioxopiperidin-3-yl)-3,5-difluorophenyl)azetidin-3-yl (3,3,3-trifluoropropyl)carbamate] | > 300 nM
O=C1CCC(c2c(F)cc(N3CC(OC(=O)N4CC5(COC5)C4)C3)cc2F)C(=O)N1 (centres unmarked) [Compound 105, 1-(4-(2,6-dioxopiperidin-3-yl)-3,5-difluorophenyl)azetidin-3-yl 2-oxa-6-azaspiro[3.3]heptane-6-carboxylate] | > 300 nM
COCC(COC)NC(=O)OC1CN(c2cc(F)c(C3CCC(=O)NC3=O)c(F)c2)C1 (centres unmarked) [Compound 108, 1-(4-(2,6-dioxopiperidin-3-yl)-3,5-difluorophenyl)azetidin-3-yl (1,3-dimethoxypropan-2-yl)carbamate] | > 300 nM

Results, then the molecule that gave them:

DC50 | SMILES
> 300 nM | C[C@H](NC(=O)OC1CN(c2cc(F)c(C3CCC(=O)NC3=O)c(F)c2)C1)c1ccccc1 (stereo partly drawn) [Compound 130, 1-(4-(2,6-dioxopiperidin-3-yl)-3,5-difluorophenyl)azetidin-3-yl((S)-1-phenylethyl) carbamate]
≤ 30 nM | C[C@H](NC(=O)OC1CN(c2cc(F)c(C3CCC(=O)NC3=O)c(F)c2)C1)C1CCCCC1 (stereo partly drawn) [Compound 115, 1-(4-(2,6-dioxopiperidin-3-yl)-3,5-difluorophenyl)azetidin-3-yl((S)-1-cyclohexylethyl)carbamate]
> 300 nM | CO[C@H]1CC[C@@H](NC(=O)OC2CN(c3cc(F)c(C4CCC(=O)NC4=O)c(F)c3)C2)CC1 (stereo partly drawn) [Compound 119, 1-(4-(2,6-dioxopiperidin-3-yl)-3,5-difluorophenyl) azetidin-3-yl ((1S,4S)-4-methoxycyclohexyl) carbamate]
≤ 30 nM | O=C1CCC(c2c(F)cc(N3CC(OC(=O)NC4CCSCC4)C3)cc2F)C(=O)N1 (centres unmarked) [Compound 116, 1-(4-(2,6-dioxopiperidin-3-yl)-3,5-difluorophenyl)azetidin-3-yl(tetrahydro-2H-thiopyran-4-yl)carbamate]
30 to 300 nM | CCC(C)CNC(=O)OC1CN(c2cc(F)c(C3CCC(=O)NC3=O)c(F)c2)C1 (centres unmarked) [Compound 122, 1-(4-(2,6-dioxopiperidin-3-yl)-3,5-difluorophenyl) azetidin-3-yl (2-methylbutyl)carbamate]
> 300 nM | CN1CCC(CNC(=O)OC2CN(c3cc(F)c(C4CCC(=O)NC4=O)c(F)c3)C2)CC1 (centres unmarked) [Compound 114, 1-(4-(2,6-dioxopiperidin-3-yl)-3,5-difluorophenyl)azetidin-3-yl((1-methylpiperidin-4-yl)methyl)carbamate]
> 300 nM | O=C1CCC(c2c(F)cc(N3CC(OC(=O)NCC4CCOCC4)C3)cc2F)C(=O)N1 (centres unmarked) [Compound 117, 1-(4-(2,6-dioxopiperidin-3-yl)-3,5-difluorophenyl)azetidin-3-yl ((tetrahydro-2H-pyran-4-yl)methyl)carbamate]
> 300 nM | CN1CCC(NC(=O)NC2CN(c3cc(F)c(C4CCC(=O)NC4=O)c(F)c3)C2)C1 (centres unmarked) [Compound 121, 1-(1-(4-(2,6-dioxopiperidin-3-yl)-3,5-difluorophenyl)azetidin-3-yl)-3-(1-methylpyrrolidin-3-yl)urea]
30 to 300 nM | O=C1CCC(c2c(F)cc(N3CC(OC(=O)NC45CCC(C4)C5)C3)cc2F)C(=O)N1 (centres unmarked) [Compound 112, 1-(4-(2,6-dioxopiperidin-3-yl)-3,5-difluorophenyl)azetidin-3-ylbicyclo[2.1.1]hexan-1-ylcarbamate]
> 300 nM | CSCCNC(=O)OC1CN(c2cc(F)c(C3CCC(=O)NC3=O)c(F)c2)C1 (centres unmarked) [Compound 118, 1-(4-(2,6-dioxopiperidin-3-yl)-3,5-difluorophenyl)azetidin-3-yl(2-(methylthio)ethyl)carbamate]
> 300 nM | CC(C)N1CCC(NC(=O)NC2CN(c3cc(F)c(C4CCC(=O)NC4=O)c(F)c3)C2)C1 (centres unmarked) [Compound 120, 1-(1-(4-(2,6-dioxopiperidin-3-yl)-3,5-difluorophenyl)azetidin-3-yl)-3-(1-isopropylpyrrolidin-3-yl) urea]
